Experimental data from US20230085307A1, “PYRIDAZINONE COMPOUND AND HERBICIDE” (NISSAN CHEMICAL CORPORATION, priority 2019, published 2023).

Tests used:
[1] = system: wheat; experiment: Test Example 4: effect on crop by soil treatment (Table 19, symbol e); assay type: in vivo; conditions: amount of applied herbicide 320 g/ha
In short: (§1)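 In this soil treatment, the formulated compound reached the seeds only through the soil: seeds were buried about 1.5 cm deep in sterilized diluvial soil, then the diluted emulsion was sprayed over the surface. After three weeks at 25° C. to 30° C. in a greenhouse, effects were graded on criteria from an earlier test.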

[2] = system: lambsquarters; experiment: Test Example 4: herbicidal effect by soil treatment (Table 19, symbol O); assay type: in vivo, lambsquarters (Chenopodium album); conditions: amount of applied herbicide 320 g/ha
In short: as §1

[3] = system: redroot pigweed; experiment: Test Example 5: herbicidal effect by foliage application, plastic box (Table 20, symbol N); assay type: in vivo, redroot pigweed (Amaranthus retroflexus); conditions: foliage application, AAH 320 g/ha, three weeks after application
In short: (§2)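 Plants were sown into sterilized diluvial soil under about 1.5 cm cover and kept in a greenhouse at 25° C. to 30° C. Fourteen days on, foliage received an even spray of the diluted emulsion. Herbicidal or crop effect was judged three weeks afterwards.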

[4] = system: rice flat sedge; experiment: Test Example 3: herbicidal effect by foliage application, Wagner pot (Table 18, symbol E); assay type: in vivo, rice flat sedge (Cyperus iria); conditions: 320 g/ha
In short: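 Plants were sown in alluvial soil held under 0.1–0.5 cm standing water and grown 14 days in a greenhouse at 25–30 °C. An emulsifiable formulation, water-diluted to the set dose, was then sprayed onto the foliage, and effects were scored three weeks later using previously defined criteria.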

[5] = system: persian speedwell; experiment: Test Example 5: herbicidal effect by foliage application, plastic box (Table 20, symbol R); assay type: in vivo, Persian speedwell (Veronica persica); conditions: foliage application, AAH 320 g/ha, three weeks after application
In short: as §2

[6] = system: barnyard grass; experiment: Test Example 4: herbicidal effect by soil treatment (Table 19, symbol H); assay type: in vivo, barnyard grass (Echinochloa crus-galli); conditions: amount of applied herbicide 320 g/ha
In short: as §1

[7] = system: soybean; experiment: Test Example 4: effect on crop by soil treatment (Table 19, symbol d); assay type: in vivo; conditions: amount of applied herbicide 320 g/ha
In short: as §1

[8] = system: Italian ryegrass; experiment: Test Example 5: herbicidal effect by foliage application, plastic box (Table 20, symbol K); assay type: in vivo, Italian ryegrass (Lolium multiflorum); conditions: foliage application, AAH 320 g/ha, three weeks after application
In short: as §2

[9] = system: chickweed; experiment: Test Example 4: herbicidal effect by soil treatment (Table 19, symbol P); assay type: in vivo, common chickweed (Stellaria media); conditions: amount of applied herbicide 320 g/ha
In short: as §1

[10] = system: lambsquarters; experiment: Test Example 5: herbicidal effect by foliage application, plastic box (Table 20, symbol O); assay type: in vivo, lambsquarters (Chenopodium album); conditions: foliage application, AAH 320 g/ha, three weeks after application
In short: as §2

[11] = system: false cleavers; experiment: Test Example 4: herbicidal effect by soil treatment (Table 19, symbol Q); assay type: in vivo, false cleavers (Galium spurium); conditions: amount of applied herbicide 320 g/ha
In short: as §1

[12] = system: velvetleaf; experiment: Test Example 5: herbicidal effect by foliage application, plastic box (Table 20, symbol M); assay type: in vivo, velvetleaf (Abutilon theophrasti); conditions: foliage application, AAH 320 g/ha, three weeks after application
In short: as §2

[13] = system: corn; experiment: Test Example 4: effect on crop by soil treatment (Table 19, symbol c); assay type: in vivo; conditions: amount of applied herbicide 320 g/ha
In short: as §1

[14] = system: redroot pigweed; experiment: Test Example 4: herbicidal effect by soil treatment (Table 19, symbol N); assay type: in vivo, redroot pigweed (Amaranthus retroflexus); conditions: amount of applied herbicide 320 g/ha
In short: as §1

[15] = system: soybean; experiment: Test Example 5: effect on crop by foliage application, plastic box (Table 20, symbol d); assay type: in vivo; conditions: AAH 320 g/ha, three weeks after application
Text: [Test Example 5] Herbicidal Effect Test by Foliage Application
(§3) Sterilized diluvial soil was placed in a plastic box having a length of 21 cm, a width of 13 cm, and a depth of 7 cm. The seeds of each of southern crabgrass, green foxtail, barnyard grass, wild oat, blackgrass, Italian ryegrass, windgrass, velvetleaf, redroot pigweed, lambsquarters, chickweed, false cleavers, persian speedwell, corn, soybean, rice, wheat, beet, and rapeseed were sowed in a spot-like manner and covered with the soil having a thickness of about 1.5 cm. Thereafter, the plants were grown in a greenhouse at 25° C. to 30° C. After 14-day growth of the plants, the emulsion agent of the compound of the present invention prepared according to Formulation Example 2 was diluted with water so as to achieve a predetermined herbicide amount, and the diluted emulsion agent was uniformly applied to a foliage part with a small-sized spray. Three weeks after the herbicide application, the effect of the herbicide on each plant was evaluated according to the criteria of Test Example 1.

[16] = system: green foxtail; experiment: Test Example 4: herbicidal effect by soil treatment (Table 19, symbol G); assay type: in vivo, green foxtail (Setaria viridis); conditions: amount of applied herbicide 320 g/ha
In short: as §1

[17] = system: barnyard grass; experiment: Test Example 5: herbicidal effect by foliage application, plastic box (Table 20, symbol H); assay type: in vivo, barnyard grass (Echinochloa crus-galli); conditions: foliage application, AAH 320 g/ha, three weeks after application
In short: as §2

[18] = system: beet; experiment: Test Example 4: effect on crop by soil treatment (Table 19, symbol f); assay type: in vivo; conditions: amount of applied herbicide 320 g/ha
Text: [Test Example 4] Herbicidal Effect Test by Soil Treatment
as §3, with “Subsequently,” for “Thereafter, the plants were grown in a greenhouse at 25° C. to 30° C. After 14-day growth of the plants,”, “the surface of the soil” for “a foliage part”, “spray. The plastic box was placed in a greenhouse at 25° C. to 30° C. for growth of the plants.” for “spray.”

[19] = system: southern crabgrass; experiment: Test Example 4: herbicidal effect by soil treatment (Table 19, symbol F); assay type: in vivo, southern crabgrass (Digitaria ciliaris); conditions: amount of applied herbicide 320 g/ha
In short: as §1

[20] = system: windgrass; experiment: Test Example 4: herbicidal effect by soil treatment (Table 19, symbol L); assay type: in vivo, windgrass (Apera spica-venti); conditions: amount of applied herbicide 320 g/ha
In short: as §1

Compound: Cc1nn(C)c(=O)c(-c2c(-n3cc(Cl)cn3)sc3ccccc23)c1O [Compound No. 1-097, 5-hydroxy-2,6-dimethyl-4-(2-(4-chloro-1H-pyrazol-1-yl)benzo[b]thiophen-3-yl)pyridazin-3(2H)-one]
- effect rating on crop, e: wheat [1]: 0 (Herbicidal rate of 5% or less (almost no effect))
- herbicidal effect rating, O: lambsquarters [2]: 4 (Herbicidal rate of 70% or more and less than 90%)
- N: redroot pigweed, herbicidal effect [3]: 3 (Herbicidal rate of 40% or more and less than 70%)
- herbicidal effect on E (rice flat sedge), rating 0-5 [4]: 4 (Herbicidal rate of 70% or more and less than 90%)
- R: persian speedwell, herbicidal effect [5]: 0 (Herbicidal rate of 5% or less (almost no effect))
- herbicidal effect rating, H: barnyard grass [6]: 0 (Herbicidal rate of 5% or less (almost no effect))
- effect rating on crop, d: soybean [7]: 0 (Herbicidal rate of 5% or less (almost no effect))
- K: Italian ryegrass, herbicidal effect [8]: 2 (Herbicidal rate of 20% or more and less than 40%)
- herbicidal effect rating, P: chickweed [9]: 0 (Herbicidal rate of 5% or less (almost no effect))
- O: lambsquarters, herbicidal effect [10]: 0 (Herbicidal rate of 5% or less (almost no effect))
- herbicidal effect rating, Q: false cleavers [11]: 0 (Herbicidal rate of 5% or less (almost no effect))
- M: velvetleaf, herbicidal effect [12]: 5 (Herbicidal rate of 90% or more (almost completely withered))
- effect rating on crop, c: corn [13]: 0 (Herbicidal rate of 5% or less (almost no effect))
- herbicidal effect rating, N: redroot pigweed [14]: 1 (Herbicidal rate of 5% or more and less than 20%)
- d: soybean, effect on crop [15]: 0 (Herbicidal rate of 5% or less (almost no effect))
- herbicidal effect rating, G: green foxtail [16]: 0 (Herbicidal rate of 5% or less (almost no effect))
- H: barnyard grass, herbicidal effect [17]: 0 (Herbicidal rate of 5% or less (almost no effect))
- effect rating on crop, f: beet [18]: 0 (Herbicidal rate of 5% or less (almost no effect))
- herbicidal effect rating, F: southern crabgrass [19]: 0 (Herbicidal rate of 5% or less (almost no effect))
- herbicidal effect rating, L: windgrass [20]: 0 (Herbicidal rate of 5% or less (almost no effect))
